Results: US8106048B2, “Heterocyclic NF-κB inhibitors” (4SC AG, priority 2004, dated 2012)

Tested on: A549-NF-κB-SEAP reporter cells
Assay: Inhibition of NF-κB-induced inflammation: […] NINA Instant Assay, TNF-α stimulated SEAP reporter
Assay type: cell-based
Conditions: % inhibition classes
Outline: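 A549 cells carrying an NF-κB-driven SEAP reporter were pretreated with compound (0.01–100 μM) for 4.5 h, then stimulated with 2 ng/ml TNF-α for 22 h. After inactivation of endogenous phosphatases, SEAP activity was read by CSPD chemiluminescence (40 min). EC50 values were fitted from quadruplicate data points.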

Row | SMILES | Biological activity (inhibition in the NF-κB inflammation assay)
1 | COc1ccccc1N1CCN(C(=O)c2csc(C3CCN(C(=O)Cc4ccc(F)cc4)CC3)n2)CC1 [compound 229] | + (“+” stands for 50-80% inhibition)
2 | O=C(c1csc(C2CCN(C(=O)c3ccccc3OC(F)(F)F)CC2)n1)N(Cc1ccc(Cl)cc1)Cc1ccc(Cl)cc1 [compound 110] | + (“+” stands for 50-80% inhibition)
3 | COc1ccccc1N1CCN(C(=O)c2csc(NC(=O)c3ccccc3OC(F)(F)F)n2)CC1 [compound 44] | ++ (“++” means 80-90%)
4 | O=C(c1csc(C2CCN(C(=O)c3ccccc3OC(F)(F)F)CC2)n1)N1CCN(c2nc3ccccc3n2Cc2ccc(F)cc2)CC1 [compound 48] | +++ (“+++” stands for 90-100% inhibition)
5 | O=C(CCC1CCCC1)N1CCN(c2nc(C(=O)N3CCN(c4cccc(C(F)(F)F)c4)CC3)cs2)CC1 [compound 37] | +++ (“+++” stands for 90-100% inhibition)
6 | CC(=O)c1ccc(N2CCN(c3nc(C(=O)N4CCN(c5cccc(C(F)(F)F)c5)CC4)cs3)CC2)cc1 [compound 66] | ++ (“++” means 80-90%)
7 | O=C(CCC1CCCC1)N1CCC(c2nc(C(=O)N3CCN(c4cccc(C(F)(F)F)c4)CC3)cs2)CC1 [compound 224] | + (“+” stands for 50-80% inhibition)
8 | O=C(Nc1nc(C(=O)N2CCN(c3cccc(C(F)(F)F)c3)CC2)cs1)c1ccccc1OC(F)(F)F [compound 32] | +++ (“+++” stands for 90-100% inhibition)
9 | COc1ccccc1N1CCC(c2nc(C(=O)N3CCN(c4cccc(C(F)(F)F)c4)CC3)cs2)CC1 [compound 158] | + (“+” stands for 50-80% inhibition)
10 | O=C(O)C1CCCCC1C(=O)N1CCC(c2nc(C(=O)N3CCN(c4cccc(C(F)(F)F)c4)CC3)cs2)CC1 (centres unmarked) [compound 189] | + (“+” stands for 50-80% inhibition)
11 | O=C(c1csc(C2CCN(C(=O)c3ccco3)CC2)n1)N1CCN(c2cccc(C(F)(F)F)c2)CC1 [compound 230] | + (“+” stands for 50-80% inhibition)
12 | O=C(c1csc(C2CCN(c3ccc(OC(F)(F)F)cc3)CC2)n1)N1CCN(c2cccc(C(F)(F)F)c2)CC1 [compound 154] | + (“+” stands for 50-80% inhibition)
13 | O=C(c1csc(C2CCN(Cc3ccncc3)CC2)n1)N1CCN(c2cccc(C(F)(F)F)c2)CC1 [compound 107] | + (“+” stands for 50-80% inhibition)
14 | N#CC1(c2ccccc2)CCN(C(=O)c2csc(C3CCN(C(=O)Cc4ccc(F)cc4)CC3)n2)CC1 [compound 228] | + (“+” stands for 50-80% inhibition)
15 | O=C(NCC1CCN(c2nc(C(=O)N3CCN(c4cccc(C(F)(F)F)c4)CC3)cs2)CC1)c1ccccc1OC(F)(F)F [compound 101] | + (“+” stands for 50-80% inhibition)
16 | O=C(c1csc(C2CCN(Cc3ccc(Br)cc3)CC2)n1)N1CCN(c2cccc(C(F)(F)F)c2)CC1 [compound 174] | + (“+” stands for 50-80% inhibition)
17 | O=C(c1csc(C2CCN(c3ccccn3)CC2)n1)N1CCN(c2cccc(C(F)(F)F)c2)CC1 [compound 123] | ++ (“++” means 80-90%)
18 | O=C(c1csc(C2CCN(Cc3ccc(-c4ccccc4)cc3)CC2)n1)N1CCN(c2cccc(C(F)(F)F)c2)CC1 [compound 167] | + (“+” stands for 50-80% inhibition)
19 | O=C(c1csc(N2CCN(c3ccc(F)cc3)CC2)n1)N1CCN(c2cccc(C(F)(F)F)c2)CC1 [compound 69] | ++ (“++” means 80-90%)
20 | N#Cc1ccc(CN2CCC(c3nc(C(=O)N4CCN(c5cccc(C(F)(F)F)c5)CC4)cs3)CC2)cc1 [compound 166] | + (“+” stands for 50-80% inhibition)
21 | O=C(Nc1nc(C(=O)N2CCN(c3cccc(C(F)(F)F)c3)CC2)cs1)c1ccc(C(F)(F)F)c(F)c1 [compound 34] | +++ (“+++” stands for 90-100% inhibition)
22 | N#Cc1ccc(C(=O)N2CCN(c3nc(C(=O)N4CCN(c5cccc(C(F)(F)F)c5)CC4)cs3)CC2)cc1 [compound 61] | +++ (“+++” stands for 90-100% inhibition)
23 | COc1nc(OC)nc(N2CCN(C(=O)c3csc(C4CCNCC4)n3)CC2)n1 [compound 152] | ++ (“++” means 80-90%)
24 | O=C(Nc1nc(C(=O)N2CCN(C(c3ccccc3)c3ccccc3)CC2)cs1)c1ccccc1OC(F)(F)F [compound 58] | ++ (“++” means 80-90%)

Row | SMILES | Biological activity (inhibition in the NF-κB inflammation assay)
25 | COc1cccc(NC(=O)N2CCC(c3nc(C(=O)N4CCN(c5cccc(C(F)(F)F)c5)CC4)cs3)CC2)c1 [compound 80] | + (“+” stands for 50-80% inhibition)
26 | O=C(c1csc(C2CCN(Cc3ccccc3)CC2)n1)N1CCN(c2cccc(C(F)(F)F)c2)CC1 [compound 177] | + (“+” stands for 50-80% inhibition)
27 | O=C(c1csc(C2CCN(Cc3cc(C(F)(F)F)cc(C(F)(F)F)c3)CC2)n1)N1CCN(c2cccc(C(F)(F)F)c2)CC1 [compound 175] | + (“+” stands for 50-80% inhibition)
28 | O=C(c1csc(C2CCN(S(=O)(=O)Cc3ccccc3)CC2)n1)N1CCN(c2cccc(C(F)(F)F)c2)CC1 [compound 198] | + (“+” stands for 50-80% inhibition)
29 | O=C(O)C=CC(=O)N1CCC(c2nc(C(=O)N3CCN(c4cccc(C(F)(F)F)c4)CC3)cs2)CC1 [compound 191] | + (“+” stands for 50-80% inhibition)
30 | COc1cc(N2CCN(C(=O)c3csc(C4CCN(C(=O)c5ccccc5OC(F)(F)F)CC4)n3)CC2)nc(OC)n1 [compound 130] | + (“+” stands for 50-80% inhibition)
31 | O=C(O)C1=C(C(=O)N2CCC(c3nc(C(=O)N4CCN(c5cccc(C(F)(F)F)c5)CC4)cs3)CC2)CCC1 [compound 188] | + (“+” stands for 50-80% inhibition)
32 | O=C(c1csc(C2CCN(Cc3ccccc3Br)CC2)n1)N1CCN(c2cccc(C(F)(F)F)c2)CC1 [compound 165] | + (“+” stands for 50-80% inhibition)
33 | CNc1ccc(Cl)cc1C1c2ccccc2CCN1C(=O)c1csc(C2CCN(C(=O)c3ccccc3OC(F)(F)F)CC2)n1 (centres unmarked) [compound 150] | ++ (“++” means 80-90%)
34 | O=C(NCC1CCN(c2nc(C(=O)N3CCN(c4cccc(C(F)(F)F)c4)CC3)cs2)CC1)c1ccc(C(F)(F)F)c(F)c1 [compound 99] | + (“+” stands for 50-80% inhibition)
35 | O=C(c1csc(C2CCN(S(=O)(=O)c3ccc(Cl)cc3Cl)CC2)n1)N1CCN(c2cccc(C(F)(F)F)c2)CC1 [compound 200] | ×
36 | O=C(c1csc(C2CCN(C(=O)c3cccs3)CC2)n1)N1CCN(c2cccc(C(F)(F)F)c2)CC1 [compound 212] | + (“+” stands for 50-80% inhibition)
37 | O=C(Nc1cc(F)cc2c1OCCO2)N1CCC(c2nc(C(=O)N3CCN(c4cccc(C(F)(F)F)c4)CC3)cs2)CC1 [compound 135] | + (“+” stands for 50-80% inhibition)
38 | Cc1cc2nc(NC(=O)Cc3nc(C4CCN(C(=O)c5ccccc5OC(F)(F)F)CC4)sc3C)[nH]c2cc1C [compound 106] | + (“+” stands for 50-80% inhibition)
39 | O=C(Cc1ccc(F)cc1)N1CCC(c2nc(C(=O)N3CCC(n4nnc5cc(C(F)(F)F)ccc54)CC3)cs2)CC1 [compound 181] | + (“+” stands for 50-80% inhibition)
40 | O=C(Nc1ccccc1)N1CCC(c2nc(C(=O)N3CCN(c4cccc(C(F)(F)F)c4)CC3)cs2)CC1 [compound 134] | + (“+” stands for 50-80% inhibition)
41 | Cc1cc(NC(=O)N2CCC(c3nc(C(=O)N4CCN(c5cccc(C(F)(F)F)c5)CC4)cs3)CC2)c(C(F)(F)F)o1 [compound 137] | + (“+” stands for 50-80% inhibition)
42 | CC(C)(C)OC(=O)N1CCC(C(=O)N2CCN(c3cccc(C(F)(F)F)c3)CC2)CC1 [compound 125] | + (“+” stands for 50-80% inhibition)
43 | COc1cc2c(cc1OC)CN(C(=O)c1csc(C3CCN(C(=O)Cc4ccc(F)cc4)CC3)n1)CC2 [compound 161] | + (“+” stands for 50-80% inhibition)
44 | O=C(Nc1nc2ccccc2[nH]1)c1csc(C2CCN(C(=O)c3ccccc3OC(F)(F)F)CC2)n1 [compound 105] | + (“+” stands for 50-80% inhibition)
45 | Cc1cc2nc(NC(=O)c3csc(C4CCN(C(=O)c5cc(-c6ccc(Cl)cc6)oc5C(F)(F)F)CC4)n3)[nH]c2cc1C [compound 132] | + (“+” stands for 50-80% inhibition)
46 | CC(C)NC(=O)N1CCC(c2nc(C(=O)N3CCN(c4cccc(C(F)(F)F)c4)CC3)cs2)CC1 [compound 78] | + (“+” stands for 50-80% inhibition)
47 | COc1cccc(N2CCC(c3nc(C(=O)N4CCN(c5cccc(C(F)(F)F)c5)CC4)cs3)CC2)c1 [compound 178] | + (“+” stands for 50-80% inhibition)
48 | O=C(c1csc(C2CCN(S(=O)(=O)c3ccc(Br)s3)CC2)n1)N1CCN(c2cccc(C(F)(F)F)c2)CC1 [compound 203] | + (“+” stands for 50-80% inhibition)

Same assay, conditions: inhibition classes

Row | SMILES | Biological activity (inhibition in the NF-κB inflammation assay)
49 | COc1cc2c(cc1OC)C(C)N(C(=O)c1csc(C3CCN(C(=O)Cc4ccc(F)cc4)CC3)n1)CC2 (centres unmarked) [compound 234] | + (“+” stands for 50-80% inhibition)
50 | COc1cc(NC(=O)N2CCC(c3nc(C(=O)N4CCN(c5cccc(C(F)(F)F)c5)CC4)cs3)CC2)cc(OC)c1OC [compound 240] | ++ (“++” means 80-90%)
